Results from US20230149507A1, “TREATMENT OF ALT CANCERS” (INSTITUTO DE MEDICINA MOLECULAR JOÃO LOBO ANTUNES, priority 2019, published 2023).

Columns and labels:
U-2 OS cells [1] = assay: Metaphase-TIFs in cells overexpressing FANCM variants; type: cell-based, human; settings: stable overexpression
From the text: (a) Schematic of FANCM domain interactions, mutations or deletions. For clarity, domains have been color coded by functional role (bottom panel). (b) Quantitation of metaphase-TIFs in U-2 OS cells stably overexpressing wild-type (FANCM+) or FANCM mutants. Scatterplot bars represent the mean±SEM. Out of 3 experiments, n≥110 metaphases scored for each mutant, *p<0.05, **p<0.005, Mann-Whitney test. (c) Quantitation of fragile telomeres in U-2 OS cells stably overexpressing wild-type (FANCM+) or FANCM mutants. Scatterplot bars represent the mean±SEM. Out of 3 experiments, n>100 metaphases scored for each mutant, *p<0.05, **p<0.005, Mann-Whitney test. (d) Representative dot blots and quantitation of C-circle assays in U-2 OS cells stably overexpressing wild-type (FANCM+) or FANCM domain mutants. C-circles were normalized to the mean of vector control. Error bars represent mean±SEM from n=3 experiments, *p<0.05, **p<0.005, Student's t-test. (e) Single molecule analysis of telomeric extension events (top panel) and length of extension events (bottom panel) in U-2 OS cells stably overexpressing wild-type (FANCM+) or FANCM domain mutants. Error bars represent mean±SEM of n≥350 fibers out of 3 experiments, *p<0.05, **p<0.005, Student's t-test.
(§1) FIG. 23. Defects in ALT phenotype suppression are exacerbated by overexpression of a double-mutant (DM) FANCM, in which both the MM2 domain (FF>AA) and the translocase domain (K117R) of FANCM are mutated. (a) Representative dot blots and quantitation of C-circle assays in U-2 OS cells stably overexpressing wild-type (WT) or FANCM domain mutants (K117R, FF>AA; DM). C-circles were normalized to the mean of empty vector control (EV). Error bars represent mean±SEM from n=3 experiments, *p<0.05, **p<0.005, Student's t-test. (b) Quantitation of APB frequency in U-2 OS cells overexpressing wild-type (WT) or FANCM mutants. Scatterplot bars represent the mean±SEM. Out of three experiments, n=150 cells were scored for each mutant, **p<0.005, Mann-Whitney test. (c) Quantitation of metaphase-TIFs in U-2 OS cells stably overexpressing wild-type (WT) or FANCM mutants. Scatterplot bars represent the mean±SEM. Out of three experiments, n=120 metaphases scored for each mutant, *p<0.05, **p<0.005, Mann-Whitney test. All statistical comparisons are relative to EV control.
(§2) Empty vector and wild-type FANCM (pCMV6-Myc-DDK) constructs were obtained from Origene Technologies. Wild type FANCM (SEQ ID NO: 2) and FANCM mutants (SEQ ID NOs: 19 to 28) were cloned into the pLenti-C-Myc-DDK-IRES-Neo backbone (Origene Technologies) by restriction enzyme subcloning of gene blocks synthesized by Integrated DNA Technologies (IDT). Lentivirus was produced by the Vector and Genome Engineering Facility (Children's Medical Research Institute). For stable overexpression, cells were transduced with lentivirus, allowed to recover for 24 h, and subject to G418 selection. Cells were maintained in G418 to ensure sustained overexpression.
Indirect IF and telomere FISH were performed on both interphase nuclei and metaphase spreads. For interphase IF experiments, cells were grown on coverslips or LabTek chamber slides (Thermo Scientific). Slides were prepared as described in Sobinoff et al., 2017. Cells on coverslips were washed twice with PBS, permeabilized with KCM buffer (120 mM KCl, 20 mM NaCl, 10 mM Tris pH 7.5, 0.1% Triton), washed again with PBST and PBS, then fixed with ice-cold 4% formaldehyde PBS solution at room temperature for 10 min. […]

U-2 OS cells [2] = assay: APB frequency and APB telomere intensity in cells overexpressing FANCM variants; type: cell-based, human; settings: overexpression
From the text: (a) Western immunoblotting of stable wild-type FANCM (FANCM+) or FANCM mutant overexpression in U-2 OS cells. […] (b) TRF analysis of U-2 OS cells overexpressing wild-type (FANCM+) or FANCM mutants. Gels were hybridized under native and denatured conditions with radiolabelled telomeric probes to detect the C-strand and G-strand. (c) Tukey boxplots of APB frequency (top panel) and mean APB telomere intensity (bottom panel) in U-2 OS cells overexpressing wild-type (FANCM+) or FANCM mutants. Out of 3 experiments, n=150 cells scored per variant, *p<0.05, **p<0.005, Mann-Whitney test.
as §1, §2
Indirect IF and telomere FISH were performed on both interphase nuclei and metaphase spreads. For interphase IF experiments, cells were grown on coverslips or LabTek chamber slides (Thermo Scientific). Slides were prepared as described in Sobinoff et al., 2017. Cells on coverslips were washed twice with PBS, permeabilized with KCM buffer (120 mM KCl, 20 mM NaCl, 10 mM Tris pH 7.5, 0.1% Triton), washed again with PBST and PBS, then fixed with ice-cold 4% formaldehyde PBS solution at room temperature for 10 min. Coverslips were blocked with antibody-dilution buffer (20 mM Tris-HCl, pH 7.5, 2% (w/v) BSA, 0.2% (v/v) fish gelatin, 150 mM NaCl, 0.1% (v/v) Triton X-100 and 0.1% (w/v) sodium azide) and 0.1 mg/ml RNaseA for 30 min at 37° C. Cells were incubated with primary antibodies (Supplementary Table 1) for 1 h at 37° C. or 2 h at room temperature, then incubated with 1:1,000 dilution of appropriate Alexa Fluor conjugated secondary antibodies (Thermo Scientific). Coverslips were rinsed with PBS then fixed with 4% (v/v) formaldehyde at room temperature prior to telomere FISH. Coverslips were subjected to a graded ethanol series (75% for 2 min, 85% for 2 min, and 100% for 2 min) and allowed to air-dry. […]

Substance: FF>AA: FANCM mutant (SEQ ID NO: 25), double substitution F1232A/F1236A within the MM2 domain
- telomere dysfunction (metaphase-TIFs) (U-2 OS cells [1]): significantly increased
- intensity of telomeric signal within APBs (U-2 OS cells [2]): significant increase
- number of APBs (U-2 OS cells [2]): significant increase

Substance: K117R: FANCM mutant (SEQ ID NO: 20) substituted at K117R, DEAH domain disrupted
- telomere dysfunction (metaphase-TIFs) (U-2 OS cells [1]): failed to suppress the phenotypes
- intensity of telomeric signal within APBs (U-2 OS cells [2]): significant increase
- number of APBs (U-2 OS cells [2]): significant increase
